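Five compound concentrations were applied to cells in 96-well plates for 48 hours; endpoints were derived by simple linear interpolation of the resulting dose-response curve. The concentration for full growth arrest is given as TGI.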
Key:
Assay in all cases: NCI anticancer screen, dose series, 48 h
HL-60(TB) leukemia = test system: HL-60(TB) leukemia
OVCAR-4 ovarian = test system: OVCAR-4 ovarian
LOX IMVI melanoma = test system: LOX IMVI melanoma
MALME-3M melanoma = test system: MALME-3M melanoma
HCT-15 colon = test system: HCT-15 colon
MCF7 breast = test system: MCF7 breast
T-47D breast = test system: T-47D breast
SNB-19 CNS = test system: SNB-19 CNS
NCI-H460 lung = test system: NCI-H460 lung
SK-MEL-28 melanoma = test system: SK-MEL-28 melanoma
EKVX NSCLC = test system: EKVX NSCLC
NCI-H522 lung = test system: NCI-H522 lung
A498 renal = test system: A498 renal

| Structure (SMILES) | TGI (HL-60(TB) leukemia) [µM] | TGI (OVCAR-4 ovarian) [µM] | TGI (LOX IMVI melanoma) [µM] | TGI (MALME-3M melanoma) [µM] | TGI (HCT-15 colon) [µM] | TGI (MCF7 breast) [µM] | TGI (T-47D breast) [µM] | TGI (SNB-19 CNS) [µM] | TGI (NCI-H460 lung) [µM] | TGI (SK-MEL-28 melanoma) [µM] | TGI (EKVX NSCLC) [µM] | TGI (NCI-H522 lung) [µM] | TGI (A498 renal) [µM] |
| --- | --- | --- | --- | --- | --- | --- | --- | --- | --- | --- | --- | --- | --- |
| CC(=O)OCC(C)C1=C(O)C(=O)C2(C)C/C=C(/C)CC/C=C(\C)CCC(O)C(C)CCC12 (centres undefined) | 66.7 | 37 | 33.1 | 31.8 | 36.2 | 44.2 | 14.9 | 33.9 | 32 | 31.7 | 32 | 32.6 | 36 |
| CCOc1cc(NC(C)=O)ccc1C(=O)NNC(=O)c1ccccc1OC(C)=O | > 42.2 | > 52.4 | > 100 | > 100 | > 100 | > 100 | > 46.4 | > 100 | 32.9 | > 100 | > 70.4 | > 100 | 73.8 |
| O=C1/C(=C/c2ccccc2)N=C(c2ccccc2)N1n1c(-c2ccccc2)nc2ccccc2c1=O | > 100 | > 100 | > 100 | > 100 | > 100 | > 100 | > 100 | > 100 | > 100 | > 100 | > 100 | > 100 | > 100 |
| CN(CCC#N)c1ccc(/C=C2\SC(=S)NC2=O)cc1 | > 100 | > 100 | 36.2 | > 100 | > 100 | > 100 | > 100 | > 100 | > 100 | > 100 | > 100 | > 100 | > 100 |
| CN1C(=O)N(c2ccccc2)C2(CCN(CC3COc4ccccc4O3)CC2)C1=O (centres undefined) | > 100 | > 100 | > 100 | > 100 | > 100 | > 100 | > 100 | 56.6 | > 100 | > 100 | > 100 | > 100 | > 100 |
| Cc1nnc2n1N=C(c1cc(F)c(Cl)cc1Cl)/C(=C/c1ccc(Cl)cc1)S2 | > 100 | 33.3 | 28.3 | 58.9 | 35.2 | 50.8 | > 100 | > 100 | 38.9 | > 100 | 28.6 | > 100 | 41.3 |
| C[C@@]12[C@H]3CC[C@@H]1[C@H](O)C(=O)N2CC3 | > 100 | > 100 | > 100 | > 100 | > 100 | > 100 | > 100 | > 100 | > 100 | > 100 | > 100 | > 100 | > 100 |
| COCOC1/C=C/CCCC#C[C@H](C)C(=O)CC1 (some centres undefined) | 5.12 | 22.3 | 11.5 | 19.4 | 24 | 23.1 | 31.3 | 32.6 | 25.5 | 29.4 | 23.1 | 18.1 | 25.4 |
| CC(C)=CCOC(=O)C(C)=[N+]=[N-] | > 100 | > 100 | > 100 | > 100 | > 100 | > 100 | > 100 | > 100 | > 100 | > 100 | > 100 | > 100 | > 100 |
| CC(CN1c2ccccc2Sc2ccccc21)N(C)C (centres undefined) | 39.9 | 32.5 | 35.9 | 34.5 | 35.1 | 42.8 | 41.6 | 33 | 36 | 32.5 | 58.7 | 36.3 | 34.4 |
| O=C(O)c1cc2c(cc1CC(Cc1ccc3c(c1)CCC3)C(=O)O)CCC2 (centres undefined) | > 100 | > 100 | > 100 | > 100 | > 100 | > 100 | > 100 | > 100 | > 100 | > 100 | > 100 | > 100 | > 100 |
| CC(C)(N=NC(C)(C)C(=O)NCCO)C(=O)NCCO | > 100 | > 100 | > 100 | > 100 | > 100 | > 100 | > 100 | > 100 | > 100 | > 100 | > 100 | > 100 | > 100 |
| C=C1CC(COc2cc(=O)oc3ccccc23)(c2ccccc2)OC1=O (centres undefined) | 6.34 | 4.64 | 3.2 | 3.11 | 3.78 | 2.14 | 5.27 | 37.3 | 23.7 | 6.13 | 13.5 | 3.88 | 7.47 |
| COc1cc(/C=C2/C(=O)N(C(=O)c3ccccc3O)N=C2C)cc(OC)c1OC | > 60.3 | > 100 | > 100 | > 100 | > 100 | 34.9 | > 100 | > 100 | > 100 | > 100 | > 100 | 33.4 | 0.7 |
| CN(C)CCCOC(=O)C(c1ccccc1)C1(O)CCSCC1 (centres undefined) | > 100 | > 100 | > 100 | > 100 | > 100 | > 100 | > 100 | 78.6 | > 100 | > 100 | > 100 | > 100 | > 100 |
| Nc1ccc2nc(-c3ccccn3)c(-c3ccccn3)nc2c1 | > 100 | > 100 | > 100 | > 100 | > 100 | > 100 | > 100 | > 100 | > 100 | > 100 | > 100 | > 100 | > 100 |
| OC1C2[C@@H](O)CCCN2C[C@@H](O)[C@H]1O (some centres undefined) | > 100 | > 100 | > 100 | > 100 | > 100 | > 100 | > 100 | > 100 | > 100 | > 100 | > 100 | > 100 | > 100 |
| COc1cc(O)c(/C=N/N=C(\N)NO)c(OC)c1 | > 10 | > 10 | > 10 | > 10 | > 10 | > 10 | > 10 | > 10 | > 10 | > 10 | > 10 | > 10 | > 10 |

— PubChem BioAssay (NCI)
